Measurements: BindingDB's records for doi:10.1016/j.bmcl.2003.10.030 (Pfizer, 2003)

Legend:
[1] = Inhibitory activity against Vascular endothelial growth factor receptor
[2] = as above; remark: listed apart in the source
[3] = molecular target: Vascular endothelial growth factor receptor 1 (Homo sapiens, UniProt P17948); assay: ChEBML_213951
Source text: Inhibitory activity against Vascular endothelial growth factor receptor

Vascular endothelial growth factor receptor 1, sequence (P17948 whole entry): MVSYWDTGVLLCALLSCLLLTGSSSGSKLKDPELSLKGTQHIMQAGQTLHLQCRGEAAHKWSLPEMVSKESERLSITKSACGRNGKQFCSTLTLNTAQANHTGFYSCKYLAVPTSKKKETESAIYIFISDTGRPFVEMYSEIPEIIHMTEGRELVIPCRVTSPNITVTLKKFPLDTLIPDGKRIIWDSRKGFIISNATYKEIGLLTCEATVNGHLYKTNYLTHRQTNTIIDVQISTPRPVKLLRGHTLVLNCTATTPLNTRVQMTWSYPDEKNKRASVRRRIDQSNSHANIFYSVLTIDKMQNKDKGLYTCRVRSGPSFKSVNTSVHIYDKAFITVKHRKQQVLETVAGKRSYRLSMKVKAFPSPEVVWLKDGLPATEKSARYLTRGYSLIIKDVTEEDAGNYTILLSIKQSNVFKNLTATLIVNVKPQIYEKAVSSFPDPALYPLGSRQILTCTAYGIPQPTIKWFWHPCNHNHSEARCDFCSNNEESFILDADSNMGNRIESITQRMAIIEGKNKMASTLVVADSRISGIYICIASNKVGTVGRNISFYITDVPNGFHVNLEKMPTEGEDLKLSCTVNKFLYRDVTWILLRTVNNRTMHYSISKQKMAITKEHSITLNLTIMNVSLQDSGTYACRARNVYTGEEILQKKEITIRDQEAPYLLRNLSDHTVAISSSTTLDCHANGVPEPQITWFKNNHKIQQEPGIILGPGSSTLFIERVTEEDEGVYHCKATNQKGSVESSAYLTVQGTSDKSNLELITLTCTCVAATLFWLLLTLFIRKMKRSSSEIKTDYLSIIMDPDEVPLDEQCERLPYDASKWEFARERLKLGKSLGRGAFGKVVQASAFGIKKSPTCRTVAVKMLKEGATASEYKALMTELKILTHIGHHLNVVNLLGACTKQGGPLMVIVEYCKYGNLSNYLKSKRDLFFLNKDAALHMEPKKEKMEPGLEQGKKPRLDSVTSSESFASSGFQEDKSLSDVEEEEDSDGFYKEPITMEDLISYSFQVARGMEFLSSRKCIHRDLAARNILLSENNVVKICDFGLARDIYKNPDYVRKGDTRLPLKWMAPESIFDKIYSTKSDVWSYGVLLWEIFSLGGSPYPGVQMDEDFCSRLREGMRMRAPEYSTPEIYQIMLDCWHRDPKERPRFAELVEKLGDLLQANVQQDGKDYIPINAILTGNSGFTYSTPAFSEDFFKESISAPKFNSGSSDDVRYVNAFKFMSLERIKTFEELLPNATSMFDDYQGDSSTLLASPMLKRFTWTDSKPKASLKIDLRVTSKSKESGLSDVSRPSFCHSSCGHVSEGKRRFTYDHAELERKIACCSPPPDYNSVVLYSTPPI

Compound | IC50 [1] [nM] | further results
CN(CCO)Cc1ccc(-c2cc3nccc(Nc4ccc5[nH]ccc5c4)c3s2)cc1 [2-({4-[7-(1H-Indol-5-ylamino)-thieno[3,2-b]pyridin-2-yl]-benzyl}-methyl-amino)-ethanol] | 4 | 
c1ccc(Nc2ccc(Nc3ncnc4cc(-c5ccccc5)sc34)cc2)cc1 [N-Phenyl-N'-(6-phenyl-thieno[3,2-d]pyrimidin-4-yl)-benzene-1,4-diamine] | 390 | 
c1ccc(CCCN(c2cc3ncnc(Nc4ccc5[nH]ccc5c4)c3s2)n2ccnc2)cc1 [N*6*-Imidazol-1-yl-N*4*-(1H-indol-5-yl)-N*6*-(3-phenyl-propyl)-thieno[3,2-d]pyrimidine-4,6-diamine] |  | IC50 [2]: 4 nM
Cc1cc2cc(Nc3ccnc4cc(-c5ccc(CNCCO)cc5)sc34)ccc2[nH]1 [2-{4-[7-(2-Methyl-1H-indol-5-ylamino)-thieno[3,2-b]pyridin-2-yl]-benzylamino}-ethanol] | 4 | 
O=C(Cc1cc2ncnc(Nc3ccc4[nH]ccc4c3)c2s1)c1ccccc1 [2-[4-(1H-Indol-5-ylamino)-thieno[3,2-d]pyrimidin-6-yl]-1-((E)-phenyl)-ethenol] | 2210 | 
Cc1cc2cc(Nc3ccnc4cc(-c5ccc(CN(C)CCO)cc5)sc34)ccc2[nH]1 [2-(Methyl-{4-[7-(2-methyl-1H-indol-5-ylamino)-thieno[3,2-b]pyridin-2-yl]-benzyl}-amino)-ethanol] | 3 | 
Nc1ncnc2cc(-c3ccccc3)sc12 [6-Phenyl-thieno[3,2-d]pyrimidin-4-ylamine] | > 1250 | 
c1nc(Nc2ccc3[nH]ccc3c2)c2sccc2n1 [(1H-Indol-5-yl)-thieno[3,2-d]pyrimidin-4-yl-amine] | 1410 | 
Cc1c[nH]c2ccc(Nc3ncnc4cc(-c5ccccc5)sc34)cc12 [(3-Methyl-1H-indol-5-yl)-(6-phenyl-thieno[3,2-d]pyrimidin-4-yl)-amine] | 290 | 
Cc1cc2cc(Nc3ccnc4cc(-c5ccc(CN6CCOCC6)cc5)sc34)ccc2[nH]1 [(2-Methyl-1H-indol-5-yl)-[2-(4-morpholin-4-ylmethyl-phenyl)-thieno[3,2-b]pyridin-7-yl]-amine] | 5 | 
c1ccc(-c2cc3ncnc(Nc4ccc5[nH]ccc5c4)c3s2)cc1 [(1H-Indol-5-yl)-(6-phenyl-thieno[3,2-d]pyrimidin-4-yl)-amine] |  | IC50 [2]: 48 nM
Cc1cc2cc(Nc3ccnc4cc(-c5ccc(CNCCOCCO)cc5)sc34)ccc2[nH]1 [2-(2-{4-[7-(2-Methyl-1H-indol-5-ylamino)-thieno[3,2-b]pyridin-2-yl]-benzylamino}-ethoxy)-ethanol] | 5 | 
OCCCNCc1ccc(-c2cc3nccc(Nc4ccc5[nH]ccc5c4)c3s2)cc1 [3-{4-[7-(1H-Indol-5-ylamino)-thieno[3,2-b]pyridin-2-yl]-benzylamino}-propan-1-ol] | 4 | 
c1ccc(-c2cc3ncnc(Nc4ccc5[nH]ncc5c4)c3s2)cc1 [(1H-Indazol-5-yl)-(6-phenyl-thieno[3,2-d]pyrimidin-4-yl)-amine] | 620 | 
OCc1ccc(-c2cc3ncnc(Nc4ccc5[nH]ccc5c4)c3s2)cc1 [{4-[4-(1H-Indol-5-ylamino)-thieno[3,2-d]pyrimidin-6-yl]-phenyl}-methanol] | 56 | 
CCCNC(=O)c1cc2ncnc(Nc3ccc4[nH]ccc4c3)c2s1 [4-(1H-Indol-5-ylamino)-thieno[3,2-d]pyrimidine-6-carboxylic acid propylamide] | 2000 | 
CNc1ccc(Nc2ncnc3cc(-c4ccccc4)sc23)cc1 [N-Methyl-N'-(6-phenyl-thieno[3,2-d]pyrimidin-4-yl)-benzene-1,4-diamine] | 190 | 
Cn1ccc2cc(Nc3ncnc4cc(-c5ccccc5)sc34)ccc21 [(1-Methyl-1H-indol-5-yl)-(6-phenyl-thieno[3,2-d]pyrimidin-4-yl)-amine] | > 2500 | 

Compound | IC50 [1] [nM] | further results
c1csc(-c2cc3ncnc(Nc4ccc5[nH]ccc5c4)c3s2)c1 [(1H-Indol-5-yl)-(6-thiophen-2-yl-thieno[3,2-d]pyrimidin-4-yl)-amine] |  | IC50 [3]: 130 nM
c1ccc(CNc2ncnc3cc(-c4ccccc4)sc23)cc1 [Benzyl-(6-phenyl-thieno[3,2-d]pyrimidin-4-yl)-amine] | > 2500 | 
Cc1cc2cc(Nc3ccnc4cc(-c5ccc(CNCCCO)cc5)sc34)ccc2[nH]1 [3-{4-[7-(2-Methyl-1H-indol-5-ylamino)-thieno[3,2-b]pyridin-2-yl]-benzylamino}-propan-1-ol] | 5 | 
O=C(c1ccccc1)c1cc2ncnc(Nc3ccc4[nH]ccc4c3)c2s1 [[4-(1H-Indol-5-ylamino)-thieno[3,2-d]pyrimidin-6-yl]-phenyl-methanone] | 770 | 
CC(=O)NCCNCc1ccc(-c2cc3nccc(Nc4ccc5[nH]ccc5c4)c3s2)cc1 [N-(2-{4-[7-(1H-Indol-5-ylamino)-thieno[3,2-b]pyridin-2-yl]-benzylamino}-ethyl)-acetamide] | 24 | 
CC(=O)NCCNCc1ccc(-c2cc3ncnc(Nc4ccc5[nH]ccc5c4)c3s2)cc1 [N-(2-{4-[4-(1H-Indol-5-ylamino)-thieno[3,2-d]pyrimidin-6-yl]-benzylamino}-ethyl)-acetamide] | 4 | 
c1csc(-c2cc3nccc(Nc4ccc5[nH]ccc5c4)c3s2)c1 [(1H-Indol-5-yl)-(2-thiophen-2-yl-thieno[3,2-b]pyridin-7-yl)-amine] | 132 | 
CN(C)c1ccc(Nc2ncnc3cc(-c4ccccc4)sc23)cc1 [N,N-Dimethyl-N'-(6-phenyl-thieno[3,2-d]pyrimidin-4-yl)-benzene-1,4-diamine] | 500 | 
c1ccc(NCCN(c2cc3ncnc(Nc4ccc5[nH]ccc5c4)c3s2)n2cccc2)cc1 [N*4*-(1H-Indol-5-yl)-N*6*-(2-phenylamino-ethyl)-N*6*-pyrrol-1-yl-thieno[3,2-d]pyrimidine-4,6-diamine] | 43 | 
Cc1cc2cc(Nc3ncnc4cc(-c5ccccc5)sc34)ccc2[nH]1 [(2-Methyl-1H-indol-5-yl)-(6-phenyl-thieno[3,2-d]pyrimidin-4-yl)-amine] | 140 | 
c1ccc(-c2cc3ncnc(Nc4ccc5nn[nH]c5c4)c3s2)cc1 [(1H-Benzotriazol-5-yl)-(6-phenyl-thieno[3,2-d]pyrimidin-4-yl)-amine] | 470 | 
NCc1ccc(-c2cc3ncnc(Nc4ccc5[nH]ccc5c4)c3s2)cc1 [[6-(4-Aminomethyl-phenyl)-thieno[3,2-d]pyrimidin-4-yl]-(1H-indol-5-yl)-amine] | 18 | 
CC(C)(CO)NCc1ccc(-c2cc3ncnc(Nc4ccc5[nH]ccc5c4)c3s2)cc1 [2-{4-[4-(1H-Indol-5-ylamino)-thieno[3,2-d]pyrimidin-6-yl]-benzylamino}-2-methyl-propan-1-ol] | 25 | 
c1cc(Nc2ccc3[nH]ccc3c2)c2sc(-c3ccc(CN4CCOCC4)cc3)cc2n1 [(1H-Indol-5-yl)-[2-(4-morpholin-4-ylmethyl-phenyl)-thieno[3,2-b]pyridin-7-yl]-amine] | 5 | 
OCCNCc1ccc(-c2cc3nccc(Nc4ccc5[nH]ccc5c4)c3s2)cc1 [2-{4-[7-(1H-Indol-5-ylamino)-thieno[3,2-b]pyridin-2-yl]-benzylamino}-ethanol] | 6 | 
Brc1cc2ncnc(Nc3ccc4[nH]ccc4c3)c2s1 [(6-Bromo-thieno[3,2-d]pyrimidin-4-yl)-(1H-indol-5-yl)-amine] | 220 | 
NC(=O)c1ccc(Nc2ncnc3cc(-c4ccccc4)sc23)cc1 [4-(6-Phenyl-thieno[3,2-d]pyrimidin-4-ylamino)-benzamide] | 250 | 
